Counter-ions that a name gives are not always drawn.
Experiments:
[1] = clinical; details: human, in vivo
Description: Eprosartan is an amphiphilic molecule containing two acidic (allylic carboxylic acid and phenylic carboxylic acid) and one basic (imidazole) functional groups. At lower pH (below 2) the imidazole nitrogen will be protonated (form ii). As the pH increases, the allylic carboxylic group will be deprotonated (form iii). […] As the pH increases further, the phenylic carboxylic group will be depronated (form iv) followed by the deprotonation of the protonated imidazole group (form v). […] According to the pH-partitioning theory of absorption, only the unionized species (form ii) or the ion-neutral species (form iii) will be absorbed by passive diffusion. […] The time to maximum concentration is between 1 to 2.5 hours in fasted state and 2.5-4 hours in fed state. […] Additionally, since the commercial form of the drug is as its mesylate, which becomes dihydrated during the formulation process, high dose tablets (e.g., 600 mg tablets weigh 1,200.0 mg) may be difficult to swallow.

[2] = pH-solubility profiles (FIG. 2); assay type: physicochemical; details: pH >4.0 to 5.5, where the enteric coat starts to release

| bioavailability [1] | mean absolute bioavailability [1] | time to maximum concentration [1] | drug solubility at initiation pHs [2] | Compound |
| --- | --- | --- | --- | --- |
| ~13% | – | – | – | CCCCc1ncc(/C=C(\Cc2cccs2)C(=O)O)n1Cc1ccc(C(=O)O)cc1 [eprosartan mesylate, (E)-α-[2-n-Butyl-1-[(4-carboxyphenyl)methyl]-1H-imidazol-5-yl]methylene-2-thiophenepropionic acid monomethanesulfonate] |
| – | approximately 13% | 1 to 2.5 h | negligible | CCCCc1ncc(/C=C(\Cc2cccs2)C(=O)O)n1Cc1ccc(C(=O)O)cc1 [eprosartan, (E)-α-[2-n-butyl-1-[(4-carboxyphenyl)methyl]-1H-imidazol-5-yl]methylene-2-thiophenepropionic acid] |
